Test results published in patent US12459931B2, “Benzothiophene derivative regulator, preparation method therefor and use thereof” (Shanghai Hansoh Biomedical Co., Ltd., priority 2019, dated 2025).
Where two headings read alike, the source gives them in different places.

Key:
[1] = Pharmacokinetic assay in Balb/c mice (plasma and brain tissue); assay type: in vivo; details: p.o. 5 mg/kg; for AUC(0-t) / AUC(0-inf) / Cmax / MRT / half-life: male, Balb/c, mouse, po; for AUC(0-t): read-out: Area under curve AUC0-t; for AUC(0-inf): read-out: Area under curve AUC0-∞; for Cmax: read-out: Plasma concentration Cmax; for MRT: read-out: Average residence time MRT; for half-life: read-out: Half life t1/2 (converted)
Method: III. Pharmacokinetic Assay in Balb/c Mice
Balb/c mice were used as test animals. The pharmacokinetic behavior of the compounds of Examples of the present invention was studied in mouse body (plasma and brain tissue) by orally administration at a dose of 5 mg/kg.
Male Balb/c mice (12 mice per group), purchased from Shanghai Jiesijie Laboratory Animal Co., LTD, with Certificate No.: SCXK (Shanghai) 2013-0006 N0.311620400001794. • 2.3 Formulation of the preparation: […]
The test compound was dissolved in 0.5% CMC-Na (1% Tween80) by sonication to formulate a clear solution or homogeneous suspension. • 2.4 Administration:
After an overnight fast, male Balb/c mice (12 mice per group) were administered p.o. with the test compound at a dose of 5 mg/kg and a volume of 10 mL/kg. • 2.5 Sample collection:
0.2 mL of blood was taken from the heart of the mouse before administration and at 1, 2, 4, 8 and 24 hours after administration, and the mice were sacrificed with CO2. The samples were stored in EDTA-K2 tubes, and centrifuged for 6 minutes at 4° C., 6000 rpm to separate the plasma. The plasma samples were stored at −80° C. Whole brain tissue was taken out, weighed, placed in a 2 mL centrifuge tube, and stored at −80° C. • 2.6 Sample process:
1) 160 μL of acetonitrile was added to 40 μL of the plasma sample for precipitation, and then the mixture was centrifuged at 3500×g for 5 to 20 minutes.
2) 90 μL of acetonitrile containing internal standard (100 ng/mL) was added to 30 μL of the plasma and brain homogenate sample for precipitation, and then the mixture was centrifuged at 13000 rpm for 8 minutes.
3) 70 μL of water was added to 70 μL of the treated supernatant and mixed by vortex for 10 minutes. 20 μL of the solution was taken to analyze the concentration of the test compound by LC/MS/MS. LC/MS/MS analytical instrument: AB Sciex API 4000 Qtrap. • 2.7 Liquid chromatography analysis: • Liquid chromatography condition: Shimadzu LC-20AD pump • Chromatographic column: Agilent ZORBAX XDB-C18 (50×2.1 mm, 3.5 μm); Mobile phase: Eluent A was 0.1% formic acid in water, and Eluent B was acetonitrile • Flow rate: 0.4 mL/min • Elution time: 0-4.0 minutes the eluent is as follows:
The main parameters of pharmacokinetics were calculated by WinNonlin 6.1.

5-HT2A receptor = 5-HT2A receptor (Homo sapiens (Human), UniProt P28223); test: Radioligand-receptor binding assay, 5-HT2A receptor ([3H]-Ketanserin); details: [3H]-Ketanserin 2 nM, human 5-HT2A receptor membrane; read-out: 5HT-2A binding activity IC50
Sequence of 5-HT2A receptor (P28223 whole entry): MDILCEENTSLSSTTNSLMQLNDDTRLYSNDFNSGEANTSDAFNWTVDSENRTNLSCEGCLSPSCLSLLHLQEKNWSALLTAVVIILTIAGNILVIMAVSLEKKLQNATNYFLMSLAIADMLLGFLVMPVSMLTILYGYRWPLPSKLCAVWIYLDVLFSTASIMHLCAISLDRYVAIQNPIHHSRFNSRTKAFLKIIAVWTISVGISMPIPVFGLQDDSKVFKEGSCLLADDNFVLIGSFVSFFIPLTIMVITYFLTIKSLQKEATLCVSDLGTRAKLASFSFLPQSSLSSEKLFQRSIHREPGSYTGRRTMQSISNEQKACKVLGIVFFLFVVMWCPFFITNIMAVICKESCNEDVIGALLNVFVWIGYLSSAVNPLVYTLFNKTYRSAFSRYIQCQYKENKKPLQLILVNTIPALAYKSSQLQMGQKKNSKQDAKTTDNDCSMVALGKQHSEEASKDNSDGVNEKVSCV
Method: Determination of the Binding Ability of the Compounds of the Present Invention to 5-HT2A Receptor
The objective of this test example is to determine the affinity of the compounds for 5-HT2A receptor.
Assay buffer: 50 mM Tris-HCl pH 7.4, 4 mM CaCl2); wash solution: 50 mM Tris-HCl pH 7.4, stored at 4° C.; 0.5% PEI solution: 0.5 g PEI dissolve in 100 mL ddH2O, 4° C. storage of spare.
5 μL of the test compounds (0.005 nM to 100 nM, 10 concentrations in total) and 100 μL of buffer were added to a 96-well assay plate. 1.5 μL of cell membrane and 300 L of buffer were added to each well. The plate was shaken at 600 rpm for 5 min. A mixed solution of 100 μL of buffer and [^3H]-Ketanserin (the final concentration was 2 nM) was added to each well. The plate was shaken at 600 rpm for 5 min, and incubated at 27° C. for 30 min. The […]-96 GF/B filter plate pre-incubated with 0.5% PEI for 1 h was washed twice with the buffer (1 mL/well). The cell membrane suspension was added to the […]-96 GF/B filter plate, washed 4 times, and incubated at 55° C. for 10 min. 40 μL of ULTIMA GOLD was added to each well, and liquid scintillation counting was carried out.
(§1) The CPM (Counts per minute) values were determined by TopCount. […] The 10 concentrations of the compound were from 100 nM to 0.005 nM after 3-fold dilution of the reaction system. The percent inhibition rate and ten-point concentration data were fitted to the parametric nonlinear logistic equation by using GraphPad prism to calculate the IC50 values of the compound.

[2] = target: Human Dopamine D3 Receptor (Homo sapiens (Human), UniProt P35462); test: Radioligand-receptor binding assay, dopamine D3 receptor ([3H]-methylspiperone); details: [3H]-methylspiperone 0.5 nM, human D3 receptor membrane
Sequence of Human Dopamine D3 Receptor (P35462 whole entry): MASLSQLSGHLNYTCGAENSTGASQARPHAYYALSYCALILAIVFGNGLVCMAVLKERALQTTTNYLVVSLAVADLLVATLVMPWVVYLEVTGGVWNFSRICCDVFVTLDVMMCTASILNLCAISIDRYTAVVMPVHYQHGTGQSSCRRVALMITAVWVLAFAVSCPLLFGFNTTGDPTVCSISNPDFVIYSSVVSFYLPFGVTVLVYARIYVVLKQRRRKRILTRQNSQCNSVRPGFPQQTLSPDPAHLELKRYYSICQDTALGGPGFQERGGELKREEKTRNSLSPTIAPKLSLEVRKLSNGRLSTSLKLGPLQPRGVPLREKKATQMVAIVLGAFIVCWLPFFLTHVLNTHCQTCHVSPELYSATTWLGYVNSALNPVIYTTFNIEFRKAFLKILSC
Method: Determination of the Binding Ability of the Compounds of the Present Invention to Dopamine D3 Receptor
The objective of this test example is to determine the affinity of the compounds for dopamine D3 receptor.
Assay buffer: 50 mM Tris-HCl pH 7.4, 10 mM MgCl2; wash solution: 50 mM Tris-HCl pH 7.4, stored at 4° C.; 0.5% PEI solution: 0.5 g PEI dissolve in 100 mL ddH2O, 4° C. storage of spare.
5 μL of the test compounds (0.005 nM to 100 nM, 10 concentrations in total) and 100 μL of buffer were added to a 96-well assay plate. 1 μL of cell membrane and 300 μL of buffer were added to each well, and the plate was shaken at 600 rpm for 5 min. A mixed solution of 100 μL of buffer and [^3H]-methylspiperone (the final concentration was 0.5 nM) was added to each well. The plate was shaken at 600 rpm for 5 min, and incubated at 27° C. for 30 min. The […]-96 GF/B filter plate pre-incubated with 0.5% PEI for 1 h was washed twice with the buffer (1 mL/well). The cell membrane suspension was added to the […]-96 GF/B filter plate, washed 4 times, and incubated at 55° C. for 10 min. 40 μL of ULTIMA GOLD was added to each well, and liquid scintillation counting was carried out.
as §1

Row | SMILES | Peak time tmax ([1]; Brain) | Peak time tmax ([1]; Plasma) | AUC(0-t) ([1]; Brain) | AUC(0-inf) ([1]; Brain) | Cmax ([1]; Brain) | AUC(0-t) ([1]; Plasma) | AUC(0-inf) ([1]; Plasma) | MRT ([1]; Plasma) | half-life ([1]; Plasma) | Cmax ([1]; Plasma) | IC50 (5-HT2A receptor) | IC50 [2]
1 | CC(C)(O)C(=O)N[C@H]1CC[C@H](CCN2CCN(c3cccc4sccc34)CC2)CC1 [Example 41, N-(Trans-4-(2-(4-(benzo[b]thiophen-4-yl)piperazin-1-yl)ethyl)cyclohexyl)-2-hydroxy-2-methylpropanamide] | 1 h | 1 h | 8120 ng·h/mL | 13000 ng·h/mL | 731 ng/mL | 5210 ng·h/mL | 6370 ng·h/mL | 13.5 h | 10.2 h | 452 ng/mL | 0.43 nM | 1.03 nM
2 | O=C(N[C@H]1CC[C@H](CCN2CCN(c3cccc4sccc34)CC2)CC1)C1(O)CC1 [Example 42, N-(Trans-4-(2-(4-(benzo[b]thiophen-4-yl)piperazin-1-yl)ethyl)cyclohexyl)-1-hydroxycyclopropane-1-carboxamide] | 1 h | 1 h | 3610 ng·h/mL | 3890 ng·h/mL | 330 ng/mL | 4240 ng·h/mL | 4370 ng·h/mL | 6.84 h | 4.84 h | 477 ng/mL | 0.26 nM | 0.2 nM
